Activity calls are given as the source filed them. The rule behind the calls is not given here.
Experiments:
K562 [1] = experiment: Antiproliferative activity against human K562 cells assessed as growth inhibition after 72 hrs by CCK-8 assay; format: functional, cell-based; details: K562, 72 h
Tubulin (Homo sapiens) [2] = biological target: T1, Tubulin (Homo sapiens) (UniProt P68371+Q9H4B7+P0DPH7+P68366+Q13509+Q71U36+P04350+Q3ZCM7+P07437+P68363+Q9BQE3+Q6PEY2+Q13885+Q9BVA1+Q9BUF5); experiment: Inhibition of tubulin polymerization in human K562/ADR cells assessed as microtubule disruption at 5 uM after 8 hrs by DAPI staining based immunofluorescence microscopy; format: cell-based
HUVEC = experiment: Antiproliferative activity against HUVEC assessed as growth inhibition after 72 hrs by CCK-8 assay; format: cell-based; details: Homo sapiens
[3] = Cell cycle arrest in human K562/ADR cells assessed as accumulation in G2/M phase at 2.5 uM after 48 hrs by propidium iodide staining-based flow cytometry (reference value: 8.32 +/- 0.81%); format: functional
K562/Adr [4] = experiment: Inhibition of P-glycoprotein in human K562/ADR cells at 2.5 uM after 48 hrs by Western blot analysis; format: cell-based
HepG2 = experiment: Antiproliferative activity against human HepG2 cells assessed as growth inhibition after 72 hrs by CCK-8 assay; format: functional, cell-based; details: HepG2, 72 h
[5] = Antiproliferative activity against human K562/ADR cells assessed as growth inhibition after 72 hrs by CCK-8 assay; format: functional, cell-based
K562/Adr [6] = experiment: Induction of apoptosis in human K562/ADR cells assessed as nuclear condensation at 2.5 uM after 48 hrs by Hoechst 33342 staining based fluorescence microscopy; format: functional, cell-based
HeLa = experiment: Antiproliferative activity against human HeLa cells assessed as growth inhibition after 72 hrs by CCK-8 assay; format: functional, cell-based
A549 = experiment: Antiproliferative activity against human A549 cells assessed as growth inhibition after 72 hrs by CCK-8 assay; format: functional, cell-based; details: A549, 72 h
K562/Adr [7] = experiment: Induction of apoptosis in human K562/ADR cells assessed as viable cells at 2.5 uM after 48 hrs by Annexin V-APC/7-AAD staining based flow cytometry (reference value: 93.25%); format: functional; details: read-out: Activity
K562/Adr [8] = experiment: Induction of apoptosis in human K562/ADR cells assessed as necrotic cells at 2.5 uM after 48 hrs by Annexin V-APC/7-AAD staining based flow cytometry (reference value: 3.57%); format: functional
K562/Adr [9] = experiment: Induction of apoptosis in human K562/ADR cells assessed as induction of cell shrinkage at 2.5 uM after 48 hrs by Hoechst 33342 staining based fluorescence microscopy; format: functional
K562/Adr [10] = experiment: Induction of apoptosis in human K562/ADR cells assessed as nuclear fragmentation at 2.5 uM after 48 hrs by Hoechst 33342 staining based fluorescence microscopy; format: functional, cell-based
K562 [11] = experiment: Resistance factor, ratio of IC50 for human K562/ADR cells to IC50 for human K562 cells; format: functional
K562/Adr [12] = experiment: Induction of apoptosis in human K562/ADR cells assessed as late apoptotic cells at 2.5 uM after 48 hrs by Annexin V-APC/7-AAD staining based flow cytometry (reference value: 1.69%); format: functional
K562/Adr [13] = experiment: Induction of apoptosis in human K562/ADR cells assessed as early apoptotic cells at 2.5 uM after 48 hrs by Annexin V-APC/7-AAD staining based flow cytometry (reference value: 1.49%); format: functional
Tubulin (Homo sapiens) [14] = biological target: T1, Tubulin (Homo sapiens); experiment: Inhibition of tubulin polymerization in human K562/ADR cells assessed as reduction in microtubule density at 5 uM after 8 hrs by DAPI staining based immunofluorescence microscopy; format: cell-based
Tubulin (Homo sapiens) [15] = biological target: T1, Tubulin (Homo sapiens); experiment: Inhibition of tubulin polymerization in human K562/ADR cells assessed as reduction in microtubule density at 13 uM after 16 hrs by DAPI staining based immunofluorescence microscopy; format: cell-based
K562/Adr [16] = experiment: Induction of apoptosis in human K562/ADR cells assessed as nuclear fragmentation at 6.5 uM after 48 hrs by Hoechst 33342 staining based fluorescence microscopy; format: functional, cell-based
K562/Adr [17] = experiment: Induction of apoptosis in human K562/ADR cells assessed as early apoptotic cells at 6.5 uM after 48 hrs by Annexin V-APC/7-AAD staining based flow cytometry (reference value: 1.49%); format: functional
Tubulin (Homo sapiens) [18] = biological target: T1, Tubulin (Homo sapiens); experiment: Inhibition of tubulin polymerization in human K562/ADR cells assessed as microtubule disruption at 13 uM after 16 hrs by DAPI staining based immunofluorescence microscopy; format: cell-based
K562/Adr [19] = experiment: Induction of apoptosis in human K562/ADR cells assessed as viable cells at 6.5 uM after 48 hrs by Annexin V-APC/7-AAD staining based flow cytometry (reference value: 93.25%); format: functional; details: read-out: Activity
K562/Adr [20] = experiment: Induction of apoptosis in human K562/ADR cells assessed as necrotic cells at 6.5 uM after 48 hrs by Annexin V-APC/7-AAD staining based flow cytometry (reference value: 3.57%); format: functional
K562/Adr [21] = experiment: Induction of apoptosis in human K562/ADR cells assessed as nuclear condensation at 6.5 uM after 48 hrs by Hoechst 33342 staining based fluorescence microscopy; format: functional, cell-based
K562/Adr [22] = experiment: Induction of apoptosis in human K562/ADR cells assessed as induction of cell shrinkage at 6.5 uM after 48 hrs by Hoechst 33342 staining based fluorescence microscopy; format: functional
K562/Adr [23] = experiment: Induction of apoptosis in human K562/ADR cells assessed as late apoptotic cells at 6.5 uM after 48 hrs by Annexin V-APC/7-AAD staining based flow cytometry (reference value: 1.69%); format: functional
[24] = Cell cycle arrest in human K562/ADR cells assessed as accumulation in G2/M phase at 6.5 uM after 48 hrs by propidium iodide staining-based flow cytometry (reference value: 8.32 +/- 0.81%); format: functional
K562/Adr [25] = experiment: Inhibition of P-glycoprotein in human K562/ADR cells at 6.5 uM after 48 hrs by Western blot analysis; format: cell-based
K562/Adr [26] = experiment: Inhibition of P-glycoprotein in human K562/ADR cells at 0.1 uM after 48 hrs by Western blot analysis; format: cell-based
K562/Adr [27] = experiment: Induction of apoptosis in human K562/ADR cells assessed as late apoptotic cells at 0.1 uM after 48 hrs by Annexin V-APC/7-AAD staining based flow cytometry (reference value: 1.69%); format: functional
K562/Adr [28] = experiment: Induction of apoptosis in human K562/ADR cells assessed as nuclear condensation at 0.1 uM after 48 hrs by Hoechst 33342 staining based fluorescence microscopy; format: functional, cell-based
[29] = Cell cycle arrest in human K562/ADR cells assessed as accumulation in G2/M phase at 0.1 uM after 48 hrs by propidium iodide staining-based flow cytometry (reference value: 8.32 +/- 0.81%); format: functional
Tubulin (Homo sapiens) [30] = biological target: T1, Tubulin (Homo sapiens); details: K562/Adr, 0.2 uM
Description: Inhibition of tubulin polymerization in human K562/ADR cells assessed as microtubule disruption at 0.2 uM after 8 hrs by DAPI staining based immunofluorescence microscopy

K562/Adr [31] = experiment: Induction of apoptosis in human K562/ADR cells assessed as viable cells at 0.1 uM after 48 hrs by Annexin V-APC/7-AAD staining based flow cytometry (reference value: 93.25%); format: functional; details: read-out: Activity
Tubulin (Homo sapiens) [32] = biological target: T1, Tubulin (Homo sapiens); details: K562/Adr, 0.2 uM; remark: listed apart in the source
Description: Inhibition of tubulin polymerization in human K562/ADR cells assessed as reduction in microtubule density at 0.2 uM after 8 hrs by DAPI staining based immunofluorescence microscopy

K562/Adr [33] = experiment: Induction of apoptosis in human K562/ADR cells assessed as nuclear fragmentation at 0.1 uM after 48 hrs by Hoechst 33342 staining based fluorescence microscopy; format: functional, cell-based
K562/Adr [34] = experiment: Induction of apoptosis in human K562/ADR cells assessed as induction of cell shrinkage at 0.1 uM after 48 hrs by Hoechst 33342 staining based fluorescence microscopy; format: functional
K562/Adr [35] = experiment: Induction of apoptosis in human K562/ADR cells assessed as early apoptotic cells at 0.1 uM after 48 hrs by Annexin V-APC/7-AAD staining based flow cytometry (reference value: 1.49%); format: functional
K562/Adr [36] = experiment: Induction of apoptosis in human K562/ADR cells assessed as necrotic cells at 0.1 uM after 48 hrs by Annexin V-APC/7-AAD staining based flow cytometry (reference value: 3.57%); format: functional

COc1cc([C@@H]2c3cc4c(cc3[C@H](OC(=O)CCC(=O)O[C@H]3O[C@@H]5O[C@@]6(C)CC[C@H]7[C@H](C)CC[C@@H]([C@H]3C)[C@@]57OO6)[C@H]3COC(=O)[C@H]23)OCO4)cc(OC)c1OC
IC50 (K562 [1]): 453 nM
inhibition (Tubulin (Homo sapiens) [2]): Active
IC50 (HUVEC): 720 nM
Activity [3]: 21.4%
inhibition (K562/Adr [4]): Active
IC50 (HepG2): 672 nM
IC50 [5]: 2020 nM
Activity (K562/Adr [6]): Active
IC50 (HeLa): 936 nM
IC50 (A549): 3010 nM
viability at 2.5 µM (K562/Adr [7]): 88.1%
Activity (K562/Adr [8]): 6.39%
Activity (K562/Adr [9]): Active
Activity (K562/Adr [10]): Active
Ratio IC50 (K562 [11]): 4.454
Activity (K562/Adr [12]): 2.82%
Activity (K562/Adr [13]): 2.68%
inhibition (Tubulin (Homo sapiens) [14]): Active

C[C@H]1[C@H](OC(=O)CCC(=O)O)O[C@@H]2O[C@@]3(C)CC[C@H]4[C@H](C)CC[C@@H]1[C@@]24OO3 [ARTESUNATE]
IC50 (K562 [1]): 6000 nM
IC50 (HUVEC): 1090 nM
inhibition (Tubulin (Homo sapiens) [15]): Active
IC50 (HepG2): 22200 nM
Activity (K562/Adr [16]): Active
Activity (K562/Adr [17]): 5.97%
IC50 [5]: 6260 nM
IC50 (HeLa): 19000 nM
IC50 (A549): 15900 nM
inhibition (Tubulin (Homo sapiens) [18]): Active
viability at 6.5 µM (K562/Adr [19]): 77.5%
Activity (K562/Adr [20]): 7.2%
Activity (K562/Adr [21]): Active
Activity (K562/Adr [22]): Active
Ratio IC50 (K562 [11]): 1.042
Activity (K562/Adr [23]): 9.31%
Activity [24]: 16.9%
inhibition (K562/Adr [25]): Active

COc1cc([C@@H]2c3cc4c(cc3[C@@H](O[C@@H]3O[C@@H]5CO[C@@H](C)O[C@H]5[C@H](O)[C@H]3O)[C@H]3COC(=O)[C@H]23)OCO4)cc(OC)c1O [ETOPOSIDE]
IC50 (K562 [1]): 413 nM
IC50 (HUVEC): 1340 nM
IC50 (HepG2): 1750 nM
IC50 [5]: 2020 nM
IC50 (HeLa): 1600 nM
IC50 (A549): 2680 nM
Ratio IC50 (K562 [11]): 4.903

COc1cc([C@@H]2c3cc4c(cc3[C@H](O)[C@H]3COC(=O)[C@H]23)OCO4)cc(OC)c1OC [PODOFILOX]
IC50 (K562 [1]): 6 nM
IC50 (HUVEC): 14 nM
inhibition (K562/Adr [26]): Active
Activity (K562/Adr [27]): 10.65%
Activity (K562/Adr [28]): Active
IC50 (HepG2): 14 nM
Activity [29]: 33.2%
IC50 [5]: 85 nM
IC50 (HeLa): 12 nM
IC50 (A549): 14 nM
inhibition (Tubulin (Homo sapiens) [30]): Active
viability at 0.1 µM (K562/Adr [31]): 54.4%
inhibition (Tubulin (Homo sapiens) [32]): Active
Ratio IC50 (K562 [11]): 14.166
Activity (K562/Adr [33]): Active
Activity (K562/Adr [34]): Active
Activity (K562/Adr [35]): 24.7%
Activity (K562/Adr [36]): 10.26%
